Experimental data taken from US20060276393A1, “Novel compositions for preventing and treating neurodegenerative and blood coagulation disorders” (Sirtris Pharmaceuticals, Inc., priority 2005, published 2006).

What was measured:
[1] = biological target: T1, SIRT1 deacetylase (BIOMOL) (Homo sapiens, UniProt Q96EB6); assay: High-throughput SIRT1 screening protocol (ICCB library); assay type: biochemical; conditions: positive controls; 200 μM NAD+, 5 μM Fluor de Lys-SIRT1; resveratrol 50 μM
T1 construct: purchased BIOMOL
T1 sequence (Q96EB6 1-747): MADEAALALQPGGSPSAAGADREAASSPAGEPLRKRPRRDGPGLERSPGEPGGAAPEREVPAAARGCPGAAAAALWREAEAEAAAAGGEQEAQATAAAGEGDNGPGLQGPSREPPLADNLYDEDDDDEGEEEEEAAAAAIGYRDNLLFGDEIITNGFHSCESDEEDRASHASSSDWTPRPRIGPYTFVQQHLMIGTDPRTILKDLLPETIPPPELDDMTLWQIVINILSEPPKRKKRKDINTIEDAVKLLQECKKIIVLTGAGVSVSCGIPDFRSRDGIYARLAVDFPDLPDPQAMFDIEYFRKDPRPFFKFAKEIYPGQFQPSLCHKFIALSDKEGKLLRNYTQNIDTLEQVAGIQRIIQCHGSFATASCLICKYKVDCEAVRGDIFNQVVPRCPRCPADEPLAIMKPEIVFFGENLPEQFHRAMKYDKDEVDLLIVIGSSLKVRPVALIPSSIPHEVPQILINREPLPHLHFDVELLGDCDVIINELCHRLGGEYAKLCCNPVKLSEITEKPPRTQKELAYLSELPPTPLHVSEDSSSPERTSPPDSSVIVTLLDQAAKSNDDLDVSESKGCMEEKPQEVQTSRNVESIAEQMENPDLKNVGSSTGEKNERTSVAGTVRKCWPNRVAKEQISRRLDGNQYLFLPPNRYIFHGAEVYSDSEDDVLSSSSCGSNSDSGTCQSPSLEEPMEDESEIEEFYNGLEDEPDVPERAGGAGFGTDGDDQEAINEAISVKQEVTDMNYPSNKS
Description: The reaction mixture contains (final): 0.5 units/reaction SIRT1 deacetylase (BIOMOL); 200 μM NAD^+; 5 μM Fluor de Lys-SIRT1 substrate (BIOMOL); buffer (25 mM Tris/Cl, pH 8.0, 137 mM NaCl, 2.7 mM KCl, 1 mM MgCl2, and 1 mg/ml BSA). In addition, a reaction mixture containing no enzyme was made so that each well receiving compound has a corresponding “no enzyme control” well. Reactions were performed in black 384 well plates (NUNC) in a final volume of 25 μl/well.
The reactions were started by combining enzyme and substrate in a reaction mixture immediately prior to aliquoting in plates (or substrate only for “no enzyme control” plates). Mixture were aliquoted to plates using Biotek μfill (Biotek Instruments). Control mixtures were manually added to designated wells. A library compound was added at a desired concentration by pin transfer to both “with enzyme” and “no enzyme” plates. Compounds were added in at least triplicate (with enzyme reaction in duplicate and no enzyme controls) at a final concentration of roughly 50 μM. The plates were incubated at 37° C for 30-60 minutes. Then 25 μl of 1× Developer II (BIOMOL) plus 2 mM nicotinamide were added to all wells to stop the reactions. The reactions were left for at least 30 minutes at 37° C. for the signal to develop. The plates were read in a microplate-reading fluorometer capable of excitation at a wavelength in the range of 350-380 nm and detection of emitted light in the range of 440-460 nm. A read time of 0.1 sec per well was used.

recombinant GST-Sir2 = recombinant GST-Sir2 (Saccharomyces cerevisiae, UniProt P06700); assay: Sir2 deacetylation rate assay; assay type: biochemical, S. cerevisiae; conditions: in vitro dose-response
Chain of recombinant GST-Sir2 (P06700 whole entry): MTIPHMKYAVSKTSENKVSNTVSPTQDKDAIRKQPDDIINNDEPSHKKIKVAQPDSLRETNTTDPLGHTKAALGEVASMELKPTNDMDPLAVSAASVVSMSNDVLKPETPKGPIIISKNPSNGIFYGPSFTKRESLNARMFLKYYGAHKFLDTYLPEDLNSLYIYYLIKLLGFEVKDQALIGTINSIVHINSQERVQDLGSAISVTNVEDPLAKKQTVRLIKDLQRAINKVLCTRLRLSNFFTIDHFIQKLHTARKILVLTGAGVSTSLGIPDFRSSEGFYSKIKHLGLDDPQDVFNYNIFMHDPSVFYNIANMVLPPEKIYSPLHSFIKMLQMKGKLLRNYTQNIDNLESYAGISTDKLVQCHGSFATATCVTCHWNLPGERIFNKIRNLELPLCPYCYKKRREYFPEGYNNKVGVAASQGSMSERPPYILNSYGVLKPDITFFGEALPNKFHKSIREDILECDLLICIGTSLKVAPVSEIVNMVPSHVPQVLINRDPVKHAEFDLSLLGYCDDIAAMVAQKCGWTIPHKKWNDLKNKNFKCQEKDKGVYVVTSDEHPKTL
Description: Average lifespan for wild type, 22.9 generations, quercetin, 23.4; piceatannol.
His6-tagged recombinant SIRT1 and GST-tagged recombinant Sir2 were prepared as previously described^26. From 0.1 to 1 μg of SIRT1 and 1.5 μg of Sir2 were used per deacetylation assay (in 50 μl total reaction) as previously described^26. SIRT1 assays and certain of those for Sir2 employed the p53-382 acetylated substrate (° Fluor de Lys-SIRT1′, BIOMOL) rather than FdL.
Themed compound libraries (BIOMOL) were used for primary and secondary screening. Most polyphenol compounds were dissolved at 10 mM in dimethylsulfoxide (DMSO) on the day of the assay. For water soluble compounds and negative controls, 1% v/v DMSO was added to the assay. In vitro fluorescence assay results were read in white ½-volume 96-well microplates (Coming Costar 3693) with a CytoFluor™. II fluorescence plate reader (PerSeptive Biosystems, Ex. 360 nm, Em. 460 nm, gain=85). HeLa cells were grown and the cellular deacetylation assays were performed and read, as above, but in full-volume 96-well microplates (Coming Costar 3595). […] Calculation of net fluorescence increases included subtraction of a blank value, which in the case of Sir2 was obtained by omitting the enzyme from the reaction and in the case of SIRT1 by adding an inhibitor (200 μM suramin or 1 mM nicotinamide) to the reaction prior to the acetylated substrate. […]

Oc1ccc(/C=C/c2cc(O)cc(O)c2)cc1 [Resveratrol, 3,5,4′-Trihydroxy-trans-stilbene]
activated SIRT1 [1]: 2.2 fold | concentrations at which inhibition of Sir2 was seen (recombinant GST-Sir2): > 100 µM | optimum concentration of activator for Sir2 stimulation (recombinant GST-Sir2): 2 to 5 µM
